In BindingDB's records for patent US20240109917 (Actelion Pharmaceuticals, 2024):

What was measured:
[1] = molecular target: Platelet-derived growth factor receptor beta (Homo sapiens, UniProt P09619); assay: PDGFRβ HTRF Assay
Description: Stock Solutions:Assay buffer stock solution, contains 50 mM Hepes, 10 mM MgCl2, 1 mM EGTA, and 0.01% Brij-35, 0.01% ovalbumin, 2 mM DTT at pH 7.5, in molecular biology grade water. […] Store at −80° C. in aliquots.TK-biotin peptide, 0.5 μM in molecular biology grade water, store at −20° C. in aliquots.ATP, 100 mM in molecular biology grade water, store at −20° C. in aliquots.HTRF KinEASE-TK kit: Allow the contents of the Cisbio kit to warm up to room temperature before use. This kit contains HTRF detection buffer, TK-Antibody labeled with Eu3+-cryptate, TK-substrate biotin and Streptavidin-XL665.TK Substrate-Biotin, reconstitute 500 μg lyopholized with 574 μL molecular biology grade water to prepare a 500 μM stock; After use, aliquot the rest and store at −20° C.TK Antibody-Cryptate, reconstitute lyophilized with 1 mL of molecular biology grade water (100× solution) then add 99 mL detection buffer to prepare a ready to use TK-antibody-cryptate solution; the concentration of the TK-antibody-cryptate reagent is not known.

[2] = molecular target: Vascular endothelial growth factor receptor 2 (Homo sapiens, UniProt P35968); assay: VEGFR ADP GLO Assay
Description: Assay Procedure:Step 1. Dispensing inhibitors/controls: Using Echo, dispense 10 nL/well compound serial dilutions in DMSO to columns 1-22 (in 384-well plates) or columns 1-44 (in 1536-well plates). Dilution series=11 pt, 3-fold dilutions. The top compound concentration in the source plate is 4 mM. The top compound concentration in the assay plate is 10 uM. Using Echo, dispense 10 nl/well DMSO to column 23 (in 384-well plates) or columns 45-47 (in 1536-well plates). These wells will serve as negative control wells Using Echo, dispense 10 nl/well 400 uM TAK-593 in DMSO to column 24 (in 384-well plates) or column 48 (in 1536-well plates). The final concentration of TAK-593 in the assay should be 1 uM. These wells will serve as positive control wells.Step 2. Pre-incubation of inhibitors with kinase: Add 2 μL/well 2× kinase solution. Centrifuge at 1000 rpm for 1 min. Incubate at room temperature for 30 min.Step 3. Kinase cascade reaction: Add 2 μL/well 2× substrate/ATP solution to initiate kinase reactions. Centrifuge at 1000 rpm for 1 min. Incubate at room temperature for 180 min.Final concentrations of components in the assay:[VEGFR2]=5 nM;[ATP]=1.2 mM;[Srctide]=1 mg/mL;[DMSO] G; 1%.Step 4. Quench: Add 2 uL/well ADP Glo Reagent+0.05% CHAPS. […] Centrifuge at 1000 rpm for 1 min; Incubate at room temperature for 1 hour; Read Luminescence on a plate reader.

Chain of Vascular endothelial growth factor receptor 2 (P35968 whole entry): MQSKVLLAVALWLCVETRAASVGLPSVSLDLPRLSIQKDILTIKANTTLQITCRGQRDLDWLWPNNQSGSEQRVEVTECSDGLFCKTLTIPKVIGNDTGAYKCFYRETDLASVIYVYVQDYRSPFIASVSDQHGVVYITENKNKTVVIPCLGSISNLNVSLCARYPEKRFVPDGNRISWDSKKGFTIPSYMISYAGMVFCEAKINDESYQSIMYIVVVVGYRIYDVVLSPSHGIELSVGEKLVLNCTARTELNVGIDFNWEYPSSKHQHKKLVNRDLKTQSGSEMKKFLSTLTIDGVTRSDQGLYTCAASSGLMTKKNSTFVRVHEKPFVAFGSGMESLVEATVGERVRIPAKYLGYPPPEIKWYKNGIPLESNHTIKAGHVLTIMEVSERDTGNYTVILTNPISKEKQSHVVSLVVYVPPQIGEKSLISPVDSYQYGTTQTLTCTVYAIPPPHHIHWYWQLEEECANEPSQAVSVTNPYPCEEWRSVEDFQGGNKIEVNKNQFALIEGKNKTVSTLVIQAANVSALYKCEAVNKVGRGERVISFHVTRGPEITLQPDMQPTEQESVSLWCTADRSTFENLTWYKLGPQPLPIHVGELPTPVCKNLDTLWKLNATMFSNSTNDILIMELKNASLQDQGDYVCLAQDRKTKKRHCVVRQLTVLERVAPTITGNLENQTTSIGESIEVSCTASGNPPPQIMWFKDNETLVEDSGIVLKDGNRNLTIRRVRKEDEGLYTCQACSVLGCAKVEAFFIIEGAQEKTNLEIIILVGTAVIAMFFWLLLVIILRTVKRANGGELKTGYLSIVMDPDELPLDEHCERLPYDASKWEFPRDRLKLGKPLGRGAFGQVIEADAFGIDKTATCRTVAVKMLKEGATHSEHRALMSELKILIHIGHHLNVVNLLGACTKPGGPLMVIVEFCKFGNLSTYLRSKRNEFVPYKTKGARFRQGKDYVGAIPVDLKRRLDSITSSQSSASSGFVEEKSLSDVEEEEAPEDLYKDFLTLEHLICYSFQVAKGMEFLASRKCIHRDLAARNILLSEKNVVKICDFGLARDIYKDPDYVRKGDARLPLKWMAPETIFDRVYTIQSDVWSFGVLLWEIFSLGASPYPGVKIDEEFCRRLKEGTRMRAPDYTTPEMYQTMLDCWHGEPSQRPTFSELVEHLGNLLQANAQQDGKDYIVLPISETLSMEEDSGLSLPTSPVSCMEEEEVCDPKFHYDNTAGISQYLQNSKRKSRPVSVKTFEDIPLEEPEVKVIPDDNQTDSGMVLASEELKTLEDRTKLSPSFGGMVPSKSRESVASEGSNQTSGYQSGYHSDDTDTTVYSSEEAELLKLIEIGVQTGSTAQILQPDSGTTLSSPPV
Chain of Platelet-derived growth factor receptor beta (P09619 whole entry): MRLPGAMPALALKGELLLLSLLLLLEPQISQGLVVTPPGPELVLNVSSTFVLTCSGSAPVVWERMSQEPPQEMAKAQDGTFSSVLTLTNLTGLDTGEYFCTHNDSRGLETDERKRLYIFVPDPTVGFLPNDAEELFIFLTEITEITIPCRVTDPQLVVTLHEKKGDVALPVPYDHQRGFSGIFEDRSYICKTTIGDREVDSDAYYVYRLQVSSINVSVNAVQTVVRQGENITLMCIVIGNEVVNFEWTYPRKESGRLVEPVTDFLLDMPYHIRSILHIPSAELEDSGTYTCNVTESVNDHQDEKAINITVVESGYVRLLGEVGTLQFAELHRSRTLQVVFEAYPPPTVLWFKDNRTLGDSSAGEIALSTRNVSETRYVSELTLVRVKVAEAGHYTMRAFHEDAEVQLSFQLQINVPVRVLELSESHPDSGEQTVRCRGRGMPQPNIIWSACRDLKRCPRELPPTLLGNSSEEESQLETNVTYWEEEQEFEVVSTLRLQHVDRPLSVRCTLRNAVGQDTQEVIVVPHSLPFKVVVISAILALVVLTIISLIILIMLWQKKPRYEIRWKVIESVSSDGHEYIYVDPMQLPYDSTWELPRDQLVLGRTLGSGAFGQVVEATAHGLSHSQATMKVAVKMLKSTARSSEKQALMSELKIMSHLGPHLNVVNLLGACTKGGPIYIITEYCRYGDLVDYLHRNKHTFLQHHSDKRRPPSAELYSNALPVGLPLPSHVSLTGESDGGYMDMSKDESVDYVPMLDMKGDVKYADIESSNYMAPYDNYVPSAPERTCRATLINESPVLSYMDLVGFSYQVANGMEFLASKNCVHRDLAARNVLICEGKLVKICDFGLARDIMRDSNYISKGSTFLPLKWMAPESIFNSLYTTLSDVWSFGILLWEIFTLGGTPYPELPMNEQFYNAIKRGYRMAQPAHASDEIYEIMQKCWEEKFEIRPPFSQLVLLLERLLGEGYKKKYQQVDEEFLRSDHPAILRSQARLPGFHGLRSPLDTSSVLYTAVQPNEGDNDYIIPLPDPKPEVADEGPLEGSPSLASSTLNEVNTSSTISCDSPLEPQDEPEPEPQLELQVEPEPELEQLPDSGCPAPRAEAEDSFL

CCOC1CN(CC(=O)Nc2cnc(C)c(NC(=O)c3cnn4cc(-c5cccnc5OC)sc34)c2)C1 [US20240109917, Example 401]
IC50 [1]: 0.3 nM | IC50 [2]: > 7500 nM
